One may read the IC50 as the point on the concentration scale where inhibition reaches its midpoint.

This is an account of results in patent publication US9670159B2, “Pharmaceutical composition of a papillomavirus inhibitor” (AVIRAGEN THERAPEUTICS, INC., priority 2012, dated 2017).

Data set [1] is described as follows: Solubility of the potassium salt in comparison with the hydrochloride. Type of data set: physicochemical. The settings on record: potassium salt in comparison with its hydrochloride.
For data set [2], the target named is interaction between the E1 and E2 proteins of HPV11/HPV6 (Human papillomavirus 11, UniProt P04014+P04015). The data set can be described thus: E1/E2 interaction test (luciferase reporter, mammalian two-hybrid type). Type of data set: cell-based. The text has this: (§1) In the present invention two types of tests are used to study the biological activity of compounds against papillomavirus. A first test (“E1/E2 interaction test”) evaluates the interaction between the E1 and E2 proteins of HPV (human papillomavirus) in human cells. A second test (“replication test”) measures the replication of viral genomic DNA in human cells.
The test of interaction between E1 and E2 is similar to the tests often called “mammalian two-hybrid” tests. It is based on co-transfection of a reporter vector containing DNA binding sites for the E2 protein of HPV in the promoter controlling expression of the reporter gene, and of expression vectors coding the E1 and E2 proteins of HPV, the E1 protein being fused to the VP16 transactivation domain. […]
Compound (Ia), either in solution or in pharmaceutical compositions (a), (d), (f) and (g), was evaluated for its inhibitory activity on the interaction between the E1 and E2 proteins of HPV11/HPV6 in human cell lines derived from renal epithelial cells or cervical carcinoma cells. Various doses (0.25-40 μM) were incubated in the cell medium for 2 days after transfection, and luciferase activity was measured to determine the IC50 of the compound on the interaction between the E1 and E2 proteins of the HPVs.
For orientation: A reporter such as luciferase makes a cellular process visible.

For data set [3], the system named is E1 and E2 protein-dependent viral replication of HPV11. Briefly: Replication test (replicon reporter vector, luciferase). The class given is cell-based. The settings on record: Homo sapiens, read-out: IC50 on E1 and E2 protein-dependent viral replication of HPV11 in cells.
Description: as §1
The test of replication of viral genomic DNA is based on the co-transfection of a reporter vector containing an HPV origin of replication (ori) and expression vectors coding the E1 and E2 proteins of HPV. It makes it possible to follow the set of biological functions of E1 and E2 required for replication of the genome of the HPVs. […]
Compound (Ia), either in solution or in pharmaceutical compositions (a), (d), (f) and (g), was also evaluated for its inhibitory activity on the E1- and E2-dependent viral replication of HPV11/HPV6 in human cell lines derived from renal epithelial cells or cervical carcinoma cells. Various doses (0.25-40 μM) were incubated in the cell medium for 2 to 6 days after transfection, and luciferase activity was measured using a luminometer to determine the IC50 of the compound on the replication of the genome of the HPVs.

The nature of data set [4]: Percutaneous absorption in vitro on human skin mounted on a Franz cell. The class given is in vitro ADME. The settings on record: 8 hours of diffusion. The protocol: The percutaneous absorption of compound (Ia) from pharmaceutical composition (g) was studied after the application of a dose of 10 mg/cm^2 on human skin mounted on a Franz cell. This study was carried out by comparing percutaneous absorption on healthy skin and on delaminated skin, as a model of the weak keratinization of the anogenital region.
After 8 or 24 hours of exposure to pharmaceutical composition (g), the quantity of compound (Ia) present in each skin layer (stratum corneum, epidermis, dermis) and that having crossed the skin (receiving fluid) is quantified by HPLC.
The stratum corneum of the non-delaminated skin samples is removed from the epidermis by peeling with adhesive. The latter is applied to the skin surface under constant and controlled pressure.

Molecules are shown by their SMILES.

Chain of interaction between the E1 and E2 proteins of HPV11/HPV6 (P04014 whole entry): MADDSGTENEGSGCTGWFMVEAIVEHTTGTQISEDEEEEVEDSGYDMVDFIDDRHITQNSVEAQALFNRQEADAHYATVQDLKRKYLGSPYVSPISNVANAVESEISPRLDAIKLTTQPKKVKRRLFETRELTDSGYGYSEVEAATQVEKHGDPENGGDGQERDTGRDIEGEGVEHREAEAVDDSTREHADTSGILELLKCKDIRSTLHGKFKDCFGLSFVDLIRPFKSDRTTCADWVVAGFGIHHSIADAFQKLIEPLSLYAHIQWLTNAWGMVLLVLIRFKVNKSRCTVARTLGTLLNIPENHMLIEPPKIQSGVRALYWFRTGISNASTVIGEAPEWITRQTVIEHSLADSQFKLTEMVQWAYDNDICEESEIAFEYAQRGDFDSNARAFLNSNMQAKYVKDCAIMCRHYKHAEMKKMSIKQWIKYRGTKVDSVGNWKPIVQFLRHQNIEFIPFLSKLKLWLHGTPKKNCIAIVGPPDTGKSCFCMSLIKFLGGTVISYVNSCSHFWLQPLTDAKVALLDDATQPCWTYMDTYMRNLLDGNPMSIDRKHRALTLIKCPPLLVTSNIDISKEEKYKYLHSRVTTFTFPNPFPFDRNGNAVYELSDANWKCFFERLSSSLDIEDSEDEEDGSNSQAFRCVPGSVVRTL
Chain of interaction between the E1 and E2 proteins of HPV11/HPV6 (P04015 whole entry): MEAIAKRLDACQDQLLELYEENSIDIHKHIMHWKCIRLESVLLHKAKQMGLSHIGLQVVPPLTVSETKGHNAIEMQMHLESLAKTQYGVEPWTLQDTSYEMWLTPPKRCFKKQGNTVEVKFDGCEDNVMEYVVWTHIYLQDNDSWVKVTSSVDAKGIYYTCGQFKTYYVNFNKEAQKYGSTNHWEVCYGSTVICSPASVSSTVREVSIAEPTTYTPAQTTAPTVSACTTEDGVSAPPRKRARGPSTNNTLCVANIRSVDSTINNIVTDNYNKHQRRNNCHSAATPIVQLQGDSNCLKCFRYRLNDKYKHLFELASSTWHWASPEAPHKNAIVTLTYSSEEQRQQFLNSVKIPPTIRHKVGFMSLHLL

On to `COc1cc(CC(=O)NN(c2ccc(Cc3ccccc3)cc2)c2c(C)cccc2N2CCCCC2)c(Br)cc1C(=O)O` [Compound (Ia), 4-[N′-(4-benzyl-phenyl)-N′-(2-methyl-6-piperidin-1-yl-phenyl)-hydrazinocarbonylmethyl]-5-bromo-2-methoxy-benzoic acid], for which the solubility result in data set [1] is given as “increases the solubility”. Also, the IC50 in data set [2] and in data set [3] was approximately 1000 nM throughout. Besides, the “local concentration in the skin relative to the IC50 measured in cellulo” value in data set [4] (delaminated skin) is 1000 times; in data set [4] (healthy skin) it was 100 times.
